One experiment has as its target T1, FLAG-CXCR3 (Homo sapiens, UniProt P49682).
T1 construct: expressed in transfected cells; host or cells: HEK293T cells, transient
T1 sequence (P49682 1-368): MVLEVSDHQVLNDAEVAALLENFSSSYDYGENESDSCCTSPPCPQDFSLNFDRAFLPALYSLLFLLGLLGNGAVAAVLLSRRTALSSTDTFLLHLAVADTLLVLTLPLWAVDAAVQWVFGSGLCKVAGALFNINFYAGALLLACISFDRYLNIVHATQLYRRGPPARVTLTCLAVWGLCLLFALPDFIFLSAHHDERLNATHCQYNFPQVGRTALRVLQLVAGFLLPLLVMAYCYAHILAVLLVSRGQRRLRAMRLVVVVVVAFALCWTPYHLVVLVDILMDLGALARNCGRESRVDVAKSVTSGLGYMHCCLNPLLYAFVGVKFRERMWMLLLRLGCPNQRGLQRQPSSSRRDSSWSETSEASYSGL
Nature of the experiment: ELISA based internalization assay. The class given is cell-based. Particulars: CXCL11 100 nM, modulators 10 µM, 1h at 37°C; Figure 4B. The method, then: Enzyme-linked immunosorbent assay based internalization assay. The day after transfection with FLAG-CXCR3, cells were trypsinized, resuspended into fresh culture medium and plated in poly(D-lysine)-coated 48-well assay plates. 48h after transfection the medium was replaced by fresh DMEM w/o serum containing one concentration of the endogenous ligand CXCL11 (100 nM) or the positive allosteric modulators (10 µM) and incubated for 1h at 37°C. The cells were fixed with 4% formaldehyde solution and stained with monoclonal Anti-Flag antibody (Sigma-Aldrich Life Science, St. Louis, MO) and subsequently with Anti-Mouse IgG-Peroxidase Antibody produced in rabbit. […] The reaction was stopped with 1M H2SO4 and the resulting color was detected at 492 nm using a microplate reader Clariostar (BMG labtech, Ortenberg, Germany).
The effect of FAUC1036 on receptor internalization was investigated by scanning laser confocal microscopy and ELISA-based assay. […] The quantification of receptor internalization upon the treatment with the endogenous agonists and with either β-arrestin 2 biased FAUC1036 or G-protein biased FAUC1104 was performed with ELISA based assay. The HEK293T cells transiently expressing FLAG-CXCR3 were stimulated with compounds and chemokines for one hour, washed, fixed and the amount of FLAG-CXCR3 present on the surface was detected by anti-FLAG antibody.
In general terms: An ELISA detects its analyte on a solid surface through an enzyme-linked reagent.

In a further experiment the target is T2, CXCR3 (Homo sapiens, UniProt P49682).
T2 construct: expressed in transfected cells; host or cells: HEK293 / HEK293T cells, stably transfected; membrane preparations
T2 sequence (P49682 1-368): T1 sequence (P49682 1-368)
Nature of the experiment: [35S]GTPγS incorporation assay. The class given is biochemical. Particulars: for CXCR3 Efficacy (%) ± SEM: % of CXCL11 mediated effect; for CXCR3 Efficacy (%) ± SEM / CXCR3 pEC50 ± SEM: membrane preparations of HEK293T stably expressing CXCR3; for CXCR3 pEC50 ± SEM: mean of three experiments in triplicate; for CXCR3 mediated G protein activation (result in words): [35S]GTPγS incorporation. In a few lines:
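Membranes from HEK293 cells stably expressing human CXCR3 (30 µg/mL protein) preincubated 30 min at 37 °C with test compound, CXCL11 and 1 µM GDP in HEPES/MgCl2/NaCl/saponin buffer, pH 7.4. Then 0.10 nM [35S]GTPγS added for 30 min at 37 °C; filter-bound radioactivity counted, triplicates, 3–4 experiments.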
In general terms: GTPγS resists hydrolysis and so accumulates on activated G proteins.

“Also recorded” adds a separate entry of the source.

With `COc1ccc(C(=O)CCC(=O)N2Cc3ccccc3C[C@H]2C(=O)NCCCC[C@H](NC(=O)OC(C)(C)C)C(=O)NCC(c2ccccc2)c2ccccc2)cc1` [Compound 14, Tert-butyl ((S)-1-((2,2-diphenylethyl)amino)-6-((S)-2-(4-(4-methoxyphenyl)-4-oxobutanoyl)-1,2,3,4-tetrahydroisoquinoline-3-carboxamido)-1-oxohexan-2-yl)carbomate], at FLAG-CXCR3, the “receptor internalization (ELISA quantification)” value is “does not induce receptor internalization”. In addition, on CXCR3 (listed as 14/FAUC1104), the “CXCR3 Efficacy (%) ± SEM” value is reported as 50±19% and the “CXCR3 pEC50 ± SEM” value worked out at 5.22±0.31. On CXCR3 (listed as FAUC1104), the “CXCR3 Efficacy (%) ± SEM” value amounted to 50% and the “CXCR3 pEC50 ± SEM” value is 5.22. Also, the Emax at CXCR3 (read-out: CXCR3 Efficacy (%) ± SEM) stood at 50%.
For the compound `CC(C)(C)OC(=O)N[C@@H](CCCCNC(=O)[C@@H]1Cc2ccccc2CN1C(=O)CCC(=O)c1ccccc1)C(=O)NCC(c1ccccc1)c1ccccc1` [Compound 11, Tert-butyl ((S)-1-((2,2-diphenylethyl)amino)-1-oxo-6-((S)-2-(4-oxo-4-phenylbutanoyl)-1,2,3,4-tertahydroisoquinoline-3-carboxamido)hexan-2-yl)carbamate], on FLAG-CXCR3, the “receptor internalization (ELISA quantification)” value was “induced receptor internalization”. The “CXCR3 Efficacy (%) ± SEM” value on CXCR3 is “No effect”. Besides, the “CXCR3 mediated G protein activation (result in words)” value at CXCR3 (listed as 11/FAUC1036) was “failed to induce CXCR3 mediated G protein activation”; on CXCR3 (listed as FAUC1036), “without any activation of G proteins; also recorded: has no effect on the G-protein signalling”. In addition, at CXCR3, the “CXCR3 pEC50 ± SEM” value was “No effect”.

The record behind these values is patent EP3156398A1, “AGONISTS OF THE CHEMOKINE RECEPTOR CXCR3” (Friedrich-Alexander-Universität Erlangen-Nürnberg, priority 2015, dated 2017).
